In patent publication US20230024096A1, “BIFUNCTIONAL COMPOUNDS FOR THE TREATMENT OF CANCER” (Hoffmann-La Roche Inc., priority 2019, published 2023):

Target: T1, SMARCA2 (Homo sapiens, UniProt P51531)
T1 construct: endogenous in cells; host or cells: HT1080 (CRISPR HiBiT knock-in clone, generated in house)
Assay: SMARCA2 HiBiT degradation assay (cellular)
Type: cell-based
Conditions: table head names A549; for DC50: HiBiT-tagged SMARCA2, luminescence read-out, read-out: HiBit A549 SMARCA2 IP (nM) 6 h; for Emax: A549, 6 h incubation

[1] = Emax = amount of residual protein remaining in the cell following compound treatment

T1 sequence (P51531 whole entry): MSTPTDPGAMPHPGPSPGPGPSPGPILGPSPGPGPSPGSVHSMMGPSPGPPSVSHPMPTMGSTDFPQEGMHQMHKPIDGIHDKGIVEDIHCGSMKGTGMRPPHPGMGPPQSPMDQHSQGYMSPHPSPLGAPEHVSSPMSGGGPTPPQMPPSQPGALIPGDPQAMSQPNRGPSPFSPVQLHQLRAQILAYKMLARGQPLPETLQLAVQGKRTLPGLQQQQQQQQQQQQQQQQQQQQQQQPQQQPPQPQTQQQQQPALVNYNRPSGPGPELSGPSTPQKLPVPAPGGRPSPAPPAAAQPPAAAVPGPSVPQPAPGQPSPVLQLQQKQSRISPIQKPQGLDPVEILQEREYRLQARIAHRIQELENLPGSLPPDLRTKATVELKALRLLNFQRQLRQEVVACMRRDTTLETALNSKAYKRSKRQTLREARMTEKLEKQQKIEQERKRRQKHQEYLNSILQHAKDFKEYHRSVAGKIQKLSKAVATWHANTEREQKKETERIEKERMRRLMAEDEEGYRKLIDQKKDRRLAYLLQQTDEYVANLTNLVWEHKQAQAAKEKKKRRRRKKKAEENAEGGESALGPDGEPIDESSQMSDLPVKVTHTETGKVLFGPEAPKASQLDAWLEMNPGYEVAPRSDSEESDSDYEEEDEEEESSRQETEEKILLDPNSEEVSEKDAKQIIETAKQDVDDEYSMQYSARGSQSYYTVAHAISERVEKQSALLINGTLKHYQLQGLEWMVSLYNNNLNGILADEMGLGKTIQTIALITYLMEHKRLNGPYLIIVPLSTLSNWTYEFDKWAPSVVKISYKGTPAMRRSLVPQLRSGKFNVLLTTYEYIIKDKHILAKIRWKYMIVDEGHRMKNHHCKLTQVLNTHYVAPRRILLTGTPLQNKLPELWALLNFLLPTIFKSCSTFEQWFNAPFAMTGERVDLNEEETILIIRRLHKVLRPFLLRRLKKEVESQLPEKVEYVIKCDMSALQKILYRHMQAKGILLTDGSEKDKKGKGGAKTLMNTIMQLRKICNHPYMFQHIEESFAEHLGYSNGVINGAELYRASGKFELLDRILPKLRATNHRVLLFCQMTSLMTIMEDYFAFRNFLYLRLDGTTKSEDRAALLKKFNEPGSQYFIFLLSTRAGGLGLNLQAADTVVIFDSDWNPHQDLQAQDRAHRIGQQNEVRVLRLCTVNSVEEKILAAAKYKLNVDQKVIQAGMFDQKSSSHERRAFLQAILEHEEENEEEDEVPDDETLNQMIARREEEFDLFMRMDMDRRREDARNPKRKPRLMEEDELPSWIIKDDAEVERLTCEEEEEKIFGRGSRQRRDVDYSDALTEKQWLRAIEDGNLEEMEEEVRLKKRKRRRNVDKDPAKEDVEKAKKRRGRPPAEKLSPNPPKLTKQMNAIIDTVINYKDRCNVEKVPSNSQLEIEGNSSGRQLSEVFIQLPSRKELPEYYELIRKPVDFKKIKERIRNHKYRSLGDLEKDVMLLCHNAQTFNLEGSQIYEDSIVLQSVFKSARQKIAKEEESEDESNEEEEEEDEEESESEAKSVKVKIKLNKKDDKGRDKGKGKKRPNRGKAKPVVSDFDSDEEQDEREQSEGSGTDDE

| Structure (SMILES) | DC50 (6 h incubation) | Emax [1] | HiBit A549 SMARCA2 Emax (%) 6 h (6 h incubation, Emax = amount of residual protein remaining in the cell following compound treatment) |
| --- | --- | --- | --- |
| Nc1nnc(-c2ccccc2O)cc1N1CC2CCC(C1)N2c1cccc(OCCN2CCN(C(=O)CCC(=O)N3CCC(Oc4cccc5c4C(=O)N(C4CCC(=O)NC4=O)C5=O)CC3)CC2)c1 (racemic) [Example 9, rac-4-[[1-[4-[4-[2-[3-[3-[3-amino-6-(2-hydroxyphenyl)pyridazin-4-yl]-3,8-diazabicyclo[3.2.1]octan-8-yl]phenoxy]ethyl]piperazin-1-yl]-4-oxo-butanoyl]-4-piperidyl]oxy]-2-(2,6-dioxo-3-piperidyl)isoindoline-1,3-dione] | 339 nM | 58% |  |
| Nc1nnc(-c2ccccc2O)cc1N1CC2CCC(C1)N2c1cccc(OCCN2CCN(C(=O)CCC(=O)N3CCC(Oc4ccc5c(c4)C(=O)N(C4CCC(=O)NC4=O)C5=O)CC3)CC2)c1 (racemic) [Example 10, rac-5-[[1-[4-[4-[2-[3-[3-[3-amino-6-(2-hydroxyphenyl)pyridazin-4-yl]-3,8-diazabicyclo[3.2.1]octan-8-yl]phenoxy]ethyl]piperazin-1-yl]-4-oxo-butanoyl]-4-piperidyl]oxy]-2-(2,6-dioxo-3-piperidyl)isoindoline-1,3-dione] | 58 nM | 49% |  |
| Nc1nnc(-c2ccccc2O)cc1N1CC2CCC(C1)N2c1cccc(OCCN2CCN(C(=O)CCCCCCCNc3cccc4c3C(=O)N(C3CCC(=O)NC3=O)C4=O)CC2)c1 (racemic) [Example 11, rac-4-[[8-[4-[2-[3-[3-[3-amino-6-(2-hydroxyphenyl)pyridazin-4-yl]-3,8-diazabicyclo[3.2.1]octan-8-yl]phenoxy]ethyl]piperazin-1-yl]-8-oxo-octyl]amino]-2-(2,6-dioxo-3-piperidyl)isoindoline-1,3-dione] | 146 nM | 64% |  |
| Nc1nnc(-c2ccccc2O)cc1N1CC2CCC(C1)N2c1cccc(OCCN2CCN(C(=O)CCCCCNc3cccc4c3C(=O)N(C3CCC(=O)NC3=O)C4=O)CC2)c1 (racemic) [Example 12, rac-4-[[6-[4-[2-[3-[3-[3-amino-6-(2-hydroxyphenyl)pyridazin-4-yl]-3,8-diazabicyclo[3.2.1]octan-8-yl]phenoxy]ethyl]piperazin-1-yl]-6-oxo-hexyl]amino]-2-(2,6-dioxo-3-piperidyl)isoindoline-1,3-dione] | 60 nM | 55% |  |
| Nc1nnc(-c2ccccc2O)cc1N1CC2CCC(C1)N2c1cccc(OCCN2CCN(C(=O)C3CCN(c4cccc5c4C(=O)N(C4CCC(=O)NC4=O)C5=O)CC3)CC2)c1 (racemic) [Example 13, rac-4-[4-[4-[2-[3-[3-[3-amino-6-(2-hydroxyphenyl)pyridazin-4-yl]-3,8-diazabicyclo[3.2.1]octan-8-yl]phenoxy]ethyl]piperazine-1-carbonyl]-1-piperidyl]-2-(2,6-dioxo-3-piperidyl)isoindoline-1,3-dione] | 32 nM | 64% |  |
| Nc1nnc(-c2ccccc2O)cc1N1CC2CCC(C1)N2c1cccc(OCCN2CCN(C(=O)CCC3CCN(c4ccc5c(c4)C(=O)N(C4CCC(=O)NC4=O)C5=O)CC3)CC2)c1 (racemic) [Example 14, rac-5-[4-[3-[4-[2-[3-[3-[3-amino-6-(2-hydroxyphenyl)pyridazin-4-yl]-3,8-diazabicyclo[3.2.1]octan-8-yl]phenoxy]ethyl]piperazin-1-yl]-3-oxo-propyl]-1-piperidyl]-2-(2,6-dioxo-3-piperidyl)isoindoline-1,3-dione] | 31 nM | 45% |  |
| Nc1nnc(-c2ccccc2O)cc1N1CC2CCC(C1)N2c1cccc(OCCN2CCN(C(=O)CC3CCN(c4cccc5c4C(=O)N(C4CCC(=O)NC4=O)C5=O)CC3)CC2)c1 (racemic) [Example 15, rac-4-[4-[2-[4-[2-[3-[3-[3-amino-6-(2-hydroxyphenyl)pyridazin-4-yl]-3,8-diazabicyclo[3.2.1]octan-8-yl]phenoxy]ethyl]piperazin-1-yl]-2-oxo-ethyl]-1-piperidyl]-2-(2,6-dioxo-3-piperidyl)isoindoline-1,3-dione] | 35 nM | 52% |  |
| Nc1nnc(-c2ccccc2O)cc1N1CC2CCC(C1)N2c1cccc(OCCN2CCN(C(=O)CCC3CCN(c4cccc5c4C(=O)N(C4CCC(=O)NC4=O)C5=O)CC3)CC2)c1 (racemic) [Example 16, rac-4-[4-[3-[4-[2-[3-[3-[3-amino-6-(2-hydroxyphenyl)pyridazin-4-yl]-3,8-diazabicyclo[3.2.1]octan-8-yl]phenoxy]ethyl]piperazin-1-yl]-3-oxo-propyl]-1-piperidyl]-2-(2,6-dioxo-3-piperidyl)isoindoline-1,3-dione] | 46 nM | 50% |  |
| Nc1nnc(-c2ccccc2O)cc1N1CC2CCC(C1)N2c1cccc(OCCN2CCN(C(=O)CCCNC(=O)COc3cccc4c3C(=O)N(C3CCC(=O)NC3=O)C4=O)CC2)c1 (racemic) [Example 17, rac-N-[4-[4-[2-[3-[3-[3-amino-6-(2-hydroxyphenyl)pyridazin-4-yl]-3,8-diazabicyclo[3.2.1]octan-8-yl]phenoxy]ethyl]piperazin-1-yl]-4-oxo-butyl]-2-[2-(2,6-dioxo-3-piperidyl)-1,3-dioxo-isoindolin-4-yl]oxy-acetamide] | 1440 nM | 64% |  |
| Nc1nnc(-c2ccccc2O)cc1N1CC2CCC(C1)N2c1cccc(OCCN2CCN(C(=O)CNC(=O)C3CCN(c4cccc5c4C(=O)N(C4CCC(=O)NC4=O)C5=O)CC3)CC2)c1 (racemic) [Example 18, rac-N-[2-[4-[2-[3-[3-[3-amino-6-(2-hydroxyphenyl)pyridazin-4-yl]-3,8-diazabicyclo[3.2.1]octan-8-yl]phenoxy]ethyl]piperazin-1-yl]-2-oxo-ethyl]-1-[2-(2,6-dioxo-3-piperidyl)-1,3-dioxo-isoindolin-4-yl]piperidine-4-carboxamide] | 134 nM | 62% |  |
| Nc1nnc(-c2ccccc2O)cc1N1CC2CCC(C1)N2c1cccc(OCCN2CCN(C(=O)CNC(=O)C3CCN(c4ccc5c(c4)C(=O)N(C4CCC(=O)NC4=O)C5=O)CC3)CC2)c1 (racemic) [Example 19, rac-N-[2-[4-[2-[3-[3-[3-amino-6-(2-hydroxyphenyl)pyridazin-4-yl]-3,8-diazabicyclo[3.2.1]octan-8-yl]phenoxy]ethyl]piperazin-1-yl]-2-oxo-ethyl]-1-[2-(2,6-dioxo-3-piperidyl)-1,3-dioxo-isoindolin-5-yl]piperidine-4-carboxamide] | 64 nM |  | 34% |
| Nc1nnc(-c2ccccc2O)cc1N1CC2CCC(C1)N2c1cccc(OCCN2CCN(C(=O)CCC(=O)N3CCC(Nc4cccc5c4C(=O)N(C4CCC(=O)NC4=O)C5=O)CC3)CC2)c1 (racemic) [Example 20, rac-4-[[1-[4-[4-[2-[3-[3-[3-amino-6-(2-hydroxyphenyl)pyridazin-4-yl]-3,8-diazabicyclo[3.2.1]octan-8-yl]phenoxy]ethyl]piperazin-1-yl]-4-oxo-butanoyl]-4-piperidyl]amino]-2-(2,6-dioxo-3-piperidyl)isoindoline-1,3-dione] | 168 nM | 49% |  |
| CN(c1cccc2c1C(=O)N(C1CCC(=O)NC1=O)C2=O)C1CCN(C(=O)CCC(=O)N2CCN(CCOc3cccc(N4C5CCC4CN(c4cc(-c6ccccc6O)nnc4N)C5)c3)CC2)CC1 (racemic) [Example 21, rac-4-[[1-[4-[4-[2-[3-[3-[3-amino-6-(2-hydroxyphenyl)pyridazin-4-yl]-3,8-diazabicyclo[3.2.1]octan-8-yl]phenoxy]ethyl]piperazin-1-yl]-4-oxo-butanoyl]-4-piperidyl]-methyl-amino]-2-(2,6-dioxo-3-piperidyl)isoindoline-1,3-dione] | 118 nM | 29% |  |
| Nc1nnc(-c2ccccc2O)cc1N1CC2CCC(C1)N2c1cccc(OCCN2CCN(C(=O)CCC(=O)N3CCN(Cc4cccc5c4C(=O)N(C4CCC(=O)NC4=O)C5=O)CC3)CC2)c1 (racemic) [Example 22, rac-4-[[4-[4-[4-[2-[3-[3-[3-amino-6-(2-hydroxyphenyl)pyridazin-4-yl]-3,8-diazabicyclo[3.2.1]octan-8-yl]phenoxy]ethyl]piperazin-1-yl]-4-oxo-butanoyl]piperazin-1-yl]methyl]-2-(2,6-dioxo-3-piperidyl)isoindoline-1,3-dione] | 212 nM | 28% |  |
| Nc1nnc(-c2ccccc2O)cc1N1CC2CCC(C1)N2c1cccc(OC2CCC(CC(=O)N3CC4(C3)CN(C(=O)C3CCN(c5ccc6c(c5)C(=O)N(C5CCC(=O)NC5=O)C6=O)CC3)C4)CC2)c1 (racemic) [Example 31, rac-5-[4-[6-[2-[4-[3-[3-[3-amino-6-(2-hydroxyphenyl)pyridazin-4-yl]-3,8-diazabicyclo[3.2.1]octan-8-yl]phenoxy]cyclohexyl]acetyl]-2,6-diazaspiro[3.3]heptane-2-carbonyl]-1-piperidyl]-2-(2,6-dioxo-3-piperidyl)isoindoline-1,3-dione] | 383 nM | 55% |  |
| Nc1nnc(-c2ccccc2O)cc1N1CC2CCC(C1)N2c1cccc(OCCN2CCN(C(=O)CC3CCN(c4ccc5c(c4)C(=O)N(C4CCC(=O)NC4=O)C5=O)CC3)CC2)c1 (racemic) [Example 33, rac-5-[4-[2-[4-[2-[3-[3-[3-amino-6-(2-hydroxyphenyl)pyridazin-4-yl]-3,8-diazabicyclo[3.2.1]octan-8-yl]phenoxy]ethyl]piperazin-1-yl]-2-oxo-ethyl]-1-piperidyl]-2-(2,6-dioxo-3-piperidyl)isoindoline-1,3-dione] | 15 nM | 39% |  |
| Nc1nnc(-c2ccccc2O)cc1N1CC2CCC(C1)N2c1cccc(OCCN2CCN(CCC3CCN(c4ccc5c(c4)C(=O)N(C4CCC(=O)NC4=O)C5=O)CC3)CC2)c1 (racemic) [Example 34, rac-5-[4-[2-[4-[2-[3-[3-[3-amino-6-(2-hydroxyphenyl)pyridazin-4-yl]-3,8-diazabicyclo[3.2.1]octan-8-yl]phenoxy]ethyl]piperazin-1-yl]ethyl]-1-piperidyl]-2-(2,6-dioxo-3-piperidyl)isoindoline-1,3-dione] | 26 nM | 24% |  |
